# In patent US20260009799A1, “CA-IX TARGETING FLUORESCENT PROBES” (BRACCO IMAGING S.P.A., priority 2022, published 2026):
# Assays:
# [1] = system: hypoxic HT-29 colorectal tumor, subcutaneously induced; experiment: In vivo tumor optical imaging (IVIS Spectrum), tumor-to-background ratio; parameters: species or system mice; conditions: 24 hours after intravenous administration, 1 nmol/mouse, tumor vs hind limb muscle
# Procedure: HT-29 cells were collected and washed once with serum-free medium. Five million HT-29 cells were suspended in 0.1 mL serum-free medium and injected subcutaneously in the right flank of 5 weeks old mice. Tumor development was followed by caliper measurement twice a week, from 7 days after inoculation. Tumor volume was calculated according to the formula: (L*W2)/2, where L and W are the maximum length and width of the tumor.
# Optical Imaging experiments on HT-29 tumor bearing animals were performed after administration of Reference 1, 2 and 3, and compounds 1 and 2, all at a dose of 1 nmol/mouse in an administration volume of 0.1 mL (corresponding to about 5 mL/kg, considering a 20 g-mouse) at an injection rate of about 1 mL/min, by the IVIS Spectrum system when the tumor reached at least 200 mm^3 volume. For each group, in vivo OI experiments were performed at 0.5, 1, 2, 3, 4, 6 and 24 hours after intravenous administration of the fluorescent compounds. During imaging experiments animals were maintained under gaseous anesthesia. Regions of interest (ROIs) were drawn on the tumor and on a reference background healthy region (hind limb muscle) of the mouse for each fluorescence image at every time point to evaluate signal intensity in the tissues (expressed as Average Radiant Efficiency). The ratio between the fluorescence signal in the tumor and in the background healthy tissue (tumor-to-background ratio, TBR) was then calculated to assess the contrast.
# All the compounds of the invention and the References were tested at a dose of 1 nmol/mouse.
# [2] = Optical characterization (excitation/emission maxima, molar extinction coefficient); type: physicochemical
# Procedure: A dual-beam UV-VIS spectrophotometer (Lambda 40, Perkin Elmer) was used to determine the absorbance (Abs) of the compounds of the invention. Emission/excitation (Em/Ex) spectra were carried out on a spectrofluorometer (FluoroLog-3 1IHR-320, Horiba Jobin Yvon) equipped with an F-3018 integrating sphere accessory. The measurements were performed using an excitation wavelength at maximum absorbance of different dyes, and the sample was excited with a 450 W Xenon light Source. Detection was performed by photomultiplier tubes (PMT-NIR) cooled detector or by TBX-04 detector. Dye solutions were carefully prepared to have an absorbance lower than 0.1 (optical densities) to minimize re-absorption phenomena.
# The compounds of the invention were characterized in terms of their optical properties in vitro in aqueous medium (i.e., water/PBS pH 7.4) and in a clinical chemistry control serum (Seronorm, Sero SA), mimicking the chemical composition and optical properties of human serum. All solutions were freshly prepared. In particular, the compounds of the invention are characterized by absorption maxima comprised in the range from about 750 nm to 780 nm.
# The excitation and emission maxima in PBS and Seronorm and the molar extinction coefficient (ε) in water of representative compounds of formula (I) are shown in Table I in comparison with the known CA-IX targeting fluorescent probe named Hypoxyfluor-1 (HF-1, for instance disclosed in Bioconjugate Chem 2018, 29, 3320-3331). […] Moreover, the extinction coefficients were higher than 200,000 mM^−1 cm^−1 for all compounds.
# [3] = system: HT-29 excised tumors and tissues; experiment: Ex vivo biodistribution in excised tumors and organs; parameters: species or system mice; conditions: 1 nmol; for Organ-to-muscle ratio, intestine (mean ± SD) / Organ-to-muscle ratio, kidney (mean ± SD) / Organ-to-muscle ratio, liver (mean ± SD) / Organ-to-muscle ratio, skin (mean ± SD) / Organ-to-muscle ratio, spleen (mean ± SD) / Organ-to-muscle ratio, stomach (mean ± SD): ex vivo, 24 hours after administration; for ex vivo TBR (mean ± SD), HT-29 tumor: samples collected 24 hours after administration, tumor vs hind limb muscle
# Procedure: The ex vivo biodistribution of the representative compounds 1 and 2 and of the reference compounds (at 1 nmol/mouse) was evaluated in HT-29 excised tumors and tissues at the end of the in vivo OI sessions 24 hours post intravenous administration. At the end of the in vivo experiment, animals were euthanized by overdose of gaseous anesthesia followed by cervical dislocation. Tumor tissue, muscle, and other organs of interest were removed for ex vivo fluorescent signal measurements. The fluorescence signal intensity was measured by the IVIS Spectrum system. Regions of interest (ROIs) were drawn around each organ and tumor using the Living Image Software (PerkinElmer) and evaluating signal intensity in the tissues (expressed as Average Radiant Efficiency). The ratio between the fluorescence signal in the organs and tumor was then calculated to assess the contrast to hind limb muscle (representing the background).
# [4] = Optical characterization (excitation/emission maxima, molar extinction coefficient); type: physicochemical; conditions: in water
# [5] = biological target: T1, human serum albumin (HSA) (Homo sapiens, UniProt P02768); experiment: Binding to albumin (ultrafiltration, absorbance of filtrates); type: in vitro ADME; conditions: 4.76 μM probe in PBS, 10 KDa cut off ultrafiltration, 25° C.; read-out: HSA affinity (KA, M^−1) (converted)
# T1 construct: purchased Sigma-Aldrich A9511
# Procedure: The affinity of the probes for human serum albumin (HSA) was determined to assess the influence of structural features on their albumin binding properties. Briefly, HSA (A9511, Sigma-Aldrich) was prepared in a […] stock solution in PBS and used to obtain a series of dilutions in PBS (0, 9.52·10^−7, 4.76·10^−6, 9.52·10^−6, 1.90·10^−5, 3.81·10^−5, 5.71·10^−5, 9.52·10^−5, 1.43·10^−4, 1.90·10^−4, 2.86·10^−4, 3.81·10^−4 M), in presence of 4.76 μM of the CA-IX-targeting probe (prepared from a 50 μM stock solution in PBS), in a total volume of 0.525 mL. The samples were centrifuged (10000 g for 30 min at 25° C.) in a Microcon device (10 KDa MW cut off, Amicon Ultra-0.5 Centrifugal Filter Unit with Ultracel-10 membrane) and the absorbance measurements of the filtrates were obtained with the spectrophotometer at the maximum absorbance wavelength of the fluorophore.
# Data analysis was performed by fitting the raw data, using Microsoft Excel Solver, with the equation:
# where ΔA/b=Absorbance measured (b=1 cm), KRL=KA calculated by fitting, Δε·Rt are calculated by fitting, and [L]=HSA concentration. ΔA/b values were experimentally obtained by subtracting the absorbance of “0 HSA sample” to the absorbance of each other sample.
# [6] = biological target: T2, CA-IX expressing HT-29 cells (Homo sapiens, UniProt Q16790); experiment: Cellular binding assessment by flow cytometry; conditions: HT-29 cells, 1 hour 30 min on ice, flow cytometry; read-out: CA-IX receptor affinity (KD, nM to HT-29 cells)
# T2 construct: CA-IX, expressed in its physiological environment at the cell-surface; host or cells: HT-29 human colorectal adenocarcinoma cells
# Procedure: Human colon adenocarcinoma HT-29 cells (ATCC) used for the cellular binding experiments were cultured in McCoy's 5A medium (Sigma-Aldrich), supplemented with 10% HyClone Fetal Clone III (Euroclone), 2 mM L-glutamine (Sigma-Aldrich), 100 IU/mL penicillin, 0.1 mg/mL streptomycin, 0.25 μg/mL amphotericin B (Antibiotic-Antimycotic solution, Life Technologies) and cells were grown at 37° C. in humidified atmosphere enriched with 5% CO2. DPBS without MgCl2 and CaCl2) (Sigma-Aldrich) was used for cell rinsing.
# Indeed, by using the anti-human CA-IX antibody MAB2188 (R&D Systems) and the DAKO […], according to the instruction of the datasheet, HT-29 cells were estimated to express about 150,000 CA-IX molecules per cell. Thus, HT-29 cells were used to measure the binding of all compounds to CA-IX, expressed in its physiological environment at the cell-surface. Briefly, HT-29 cells were detached with StemPro® Accutase® Cell Dissociation Reagent (Life Technologies), collected in DPBS and counted. At least 2·10^5 HT-29 cells were placed in 1.5 mL tubes on ice and resuspended in 50-100 μL of cold FACS buffer (eBioscience™ Flow Cytometry Staining Buffer, Invitrogen) containing scalar concentrations of compounds (HF-1, reference 2, and compound 1: range 0-20 μM; reference 3: range 0-24 μM; compound 2: range 0-10 μM). After incubation (1 hour and 30 min on ice in the dark), cells were rinsed 3 times in 300 μL of cold FACS buffer by centrifugation (5 min, 4° C., 350 RCF), discarding the supernatant. Cell pellets were then resuspended in 200 μL of cold FACS buffer (or in an adequate volume in order to obtain no more than 1000 recorded events per μL during FACS analysis) and analyzed with the flow cytometer Accuri™ C6 (BD Biosciences). The mean cell-associated fluorescence was plotted against concentration and the dissociation constant at equilibrium (KD) was inferred by mathematical fitting with GraphPad Prism v.9 software, according to the following equation: […]
# where Bmax is the maximum specific binding in the same units as Y; KD is the equilibrium dissociation constant, in the same units as X; NS is the slope of nonspecific binding in Y units divided by X units; and background is the amount of nonspecific binding with no added Compound.
# All compounds were analyzed in at least three independent experiments.
# [7] = biological target: recombinant bovine CA-II enzyme (bCAII) (Bos taurus, UniProt P00921); experiment: Fluorescence-based dansylamide (DNSA) displacement assay on carbonic anhydrase catalytic site
# [8] = after injection into the patient; cited from earlier work
# T1 sequence (P02768 25-609): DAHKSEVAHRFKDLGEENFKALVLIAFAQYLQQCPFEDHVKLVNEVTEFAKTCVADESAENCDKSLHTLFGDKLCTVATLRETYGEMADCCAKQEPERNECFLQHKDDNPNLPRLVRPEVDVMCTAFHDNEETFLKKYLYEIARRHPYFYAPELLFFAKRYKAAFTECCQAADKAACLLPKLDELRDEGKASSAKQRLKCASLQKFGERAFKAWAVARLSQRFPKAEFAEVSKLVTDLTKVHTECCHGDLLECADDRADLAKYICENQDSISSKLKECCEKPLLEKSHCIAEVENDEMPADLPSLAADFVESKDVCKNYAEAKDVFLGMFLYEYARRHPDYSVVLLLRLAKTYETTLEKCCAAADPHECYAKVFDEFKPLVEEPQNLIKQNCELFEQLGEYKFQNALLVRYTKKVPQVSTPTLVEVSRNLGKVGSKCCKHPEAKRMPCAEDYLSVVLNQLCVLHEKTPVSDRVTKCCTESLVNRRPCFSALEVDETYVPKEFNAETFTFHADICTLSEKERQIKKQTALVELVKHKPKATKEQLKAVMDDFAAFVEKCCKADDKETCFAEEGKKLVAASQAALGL
# recombinant bovine CA-II enzyme (bCAII), sequence (P00921 whole entry): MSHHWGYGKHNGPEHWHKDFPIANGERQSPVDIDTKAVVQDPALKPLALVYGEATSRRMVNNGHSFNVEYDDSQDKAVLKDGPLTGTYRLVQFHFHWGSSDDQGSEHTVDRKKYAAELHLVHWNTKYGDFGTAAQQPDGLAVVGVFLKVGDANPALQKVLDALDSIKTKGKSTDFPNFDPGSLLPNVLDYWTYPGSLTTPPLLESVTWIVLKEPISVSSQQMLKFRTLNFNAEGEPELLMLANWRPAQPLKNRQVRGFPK
Compound,in vivo TBR (mean ± SD) [1],"Max Em (nm, PBS pH 7.4) ([2]; emission maximum, PBS pH 7.4)","Max Em (nm, Seronorm) ([2]; emission maximum, Seronorm control serum)","Max Ex (nm, PBS pH 7.4) ([2]; excitation maximum, PBS pH 7.4)","Max Ex (nm, Seronorm) ([2]; excitation maximum, Seronorm control serum)","Organ-to-muscle ratio, intestine (mean ± SD) [3]","Organ-to-muscle ratio, kidney (mean ± SD) [3]","Organ-to-muscle ratio, liver (mean ± SD) [3]","Organ-to-muscle ratio, skin (mean ± SD) [3]","Organ-to-muscle ratio, spleen (mean ± SD) [3]","Organ-to-muscle ratio, stomach (mean ± SD) [3]","ex vivo TBR (mean ± SD), HT-29 tumor [3]",molar extinction coefficient (ε) [4],Kd [5],Kd [6],Kd [7],time after injection to reach tumor/blood ratios suitable for imaging [8]
CC1(C)C(/C=C/C2=C(Oc3ccc(CCC(=O)NCCCCCCCC(=O)Nc4nnc(S(N)(=O)=O)s4)cc3)C(=C/C=C3/N(CCCCS(=O)(=O)O)c4ccc(S(=O)(=O)O)cc4C3(C)C)/CCC2)=[N+](CCCCS(=O)(=O)[O-])c2ccc(S(=O)(=O)O)cc21 [Reference 1],1.8 ± 0.3,798 nm,808 nm,772 nm,792 nm,2.2 ± 1.3,2.4 ± 0.3,5.7 ± 0.2,1.4 ± 0.0,1.4 ± 0.3,4.0 ± 1.7,3.1 ± 0.3,255000 M⁻¹ cm⁻¹,6.4 µM,–,–,–
CC(=O)NC(CCCCn1cc(CCCC(=O)Nc2nnc(S(N)(=O)=O)s2)nn1)C(=O)NCCOCCOCCNC(=O)CCCCCN1/C(=C/C=C2\CCCC(/C=C/C3=[N+](CCCCS(=O)(=O)[O-])c4ccc(C(=O)NC[C@H](O)[C@@H](O)[C@H](O)[C@H](O)CO)cc4C3(C)C)=C2Oc2ccc(S(=O)(=O)O)cc2)C(C)(C)c2cc(C(=O)NC[C@H](O)[C@@H](O)[C@H](O)[C@H](O)CO)ccc21 (stereo partly shown) [Reference 2],3.4 ± 0.6,–,–,–,–,3.0 ± 0.3,19.7 ± 2.2,6.2 ± 1.3,1.7 ± 0.4,1.7 ± 0.4,6.1 ± 0.7,9.2 ± 3.3,–,69.9 µM,349 ± 49 nM,0.0558 ± 0.0011 µM,–
CC(=O)NC(CCCCn1cc(CCCC(=O)Nc2nnc(S(N)(=O)=O)s2)nn1)C(=O)NCCOCCOCCNC(=O)CCCCCN1/C(=C/C=C/C=C/C=C/C2=[N+](CCC(C)S(=O)(=O)[O-])c3ccc(C(=O)NC[C@H](O)[C@@H](O)[C@H](O)[C@H](O)CO)cc3C2(C)C)C(C)(C)c2cc(C(=O)NC[C@H](O)[C@@H](O)[C@H](O)[C@H](O)CO)ccc21 (stereo partly shown) [Reference 3],4.7 ± 0.6,–,–,–,–,2.7 ± 0.9,15.8 ± 3.4,3.6 ± 1.0,2.0 ± 0.5,1.2 ± 0.3,6.7 ± 1.4,14.7 ± 2.3,–,24 µM,251 ± 44 nM,0.0302 ± 0.001 µM,–
^124I-cG250: chimeric version of monoclonal antibody G250 labeled with radionuclide 124I,–,–,–,–,–,–,–,–,–,–,–,–,–,–,–,–,2 to 7 days
